Literature values as cited in patent US6645979B2, “(7-(3-carboxyphenyl)-4-chloroisoquinolin-1-yl)guanidine” (Pfizer Inc., priority 2000, dated 2003).

Molecular target: urinary-type plasminogen activator (uPA, urokinase) (Homo sapiens, UniProt P00749)
Details: general statement, no value given

NC(N)=Nc1ncc(Cl)c2ccc(-c3cccc(C(=O)O)c3)cc12 [Compound (I), (7-(3-carboxyphenyl)-4-chloroisoquinolin-1-yl)guanidine]
uPA antagonist potency: potent
